# Laboratory results reported in patent US8226943B2, “Antibodies to notch receptors” (OncoMed Pharmaceuticals, Inc., priority 2008, dated 2012).
# Read-outs that look alike come from different tables or passages of the source.
# Columns and labels:
# PE13 breast tumor cells = assay: PE13 breast tumor xenograft growth; format: in vivo, NOD/SCID mice
# Method: In certain embodiments, NOD/SCID mice injected with 50,000 PE13 or T3 breast tumor cells were treated with anti-Notch2/3 antibody 59R1 or control antibody 1B7.11 two days following cell injections. Antibodies were dosed at 10 mg/kg twice week.
# In a further experiment, anti-Notch2/3 antibodies were tested for an effect on breast tumor growth. NOD/SCID mice were injected with 50,000 PE13 or T3 breast tumor cells, and tumors were allowed to grow to a size of between 65 to 200 mm^3 after which mice were randomized (n=10 per experimental group), and antibodies administration begun. Animals were treated with 15 mg/kg of either control 1B7.11 antibodies or anti-Notch2/3 59R1 antibodies twice weekly. Tumor size was measured twice weekly, and tumor volume was calculated as described (see Michieli et al., 2004).
# (§1) The 59R1 IgG2 antibody was also tested in vivo in the breast tumor xenograft lines OMP-B34, OMP-B39, OMP-B44, PE13, and UM-T1, the pancreas tumor xenograft line OMP-PN8, and the colon tumor xenograft line OMP-C8. These tumor xenograft lines were established by adhering to procedures described in Al-Hajj et al., 2003, Proc. Natl. Acad. Sci. USA, 100:3983-3988. Female NOD/SCID immuno-compromised mice 7-10 weeks old were used for the establishment of the breast tumor xenografts and male NOD/SCID mice were used for the OMP-Pn8 and OMP-C8 tumor-models (Harlan, Indianapolis, Ind.). The 59R1 IgG2 antibody was also tested in vivo in a Colo-205 colon tumor xenograft model. Female immunodeficient bg/nu XID mice on a Swiss CD-1 background were used for the Colo-205 xenograft tumor model. In case of the breast cancer models, slow-releasing estrogen pellets (0.36 mg) had to be implanted. Mice were subcutaneously injected on the right flank with 50,000 (OMP-B34, OMP-B39, OMP-B44, PE13, and UM-T1) or 1×10^7 (Colo-205) viable cells, respectively, in a mixture of PBS (without magnesium or calcium) and Matrigel at a 1:1 ratio. The injected total volume per mouse was 200 μl with 50% being Matrigel. Once the tumor had reached a size between 65-200 mm^3, the mice were randomized. Antibodies were administered weekly and tumors measured twice weekly. LZ1 (a human antibody that recognizes lyzozyme) or 1B711 (a murine IgG1 antibody that recognizes the hapten trinitrophenol) was used as a control antibody for treatment of each tumor type. Tumor volume was calculated as described Al-Hajj et al. (2003). Data are expressed as the mean and the mean±S.E.M. Group means were compared using Student's two-tailed, unpaired t-test. […] All statistical analysis was performed using Microsoft EXCEL and Graph Pad PRISM.
# In one embodiment, NOD/SCID mice were injected with PE13 breast tumor cells. The mice were treated with anti-Notch2/3 antibody 59R1, anti-Notch2/3 antibody 59R5, or control antibody. Antibodies were dosed at 15 mg/kg once per week in a “preventative” mode where dosing was initiated two days after cell injection.
# In one embodiment, to evaluate the effect of 59R5 on cancer stem cells, a tumor recurrence study was carried out in the PE13 breast tumor model. NOD/SCID mice were injected with PE13 breast tumor cells. The tumors were allowed to grow for 40 days before treatments were initiated. The mice were treated with taxol at 15 mg/kg twice per week for 5 weeks, in combination with either control antibody or anti-Notch 2/3 antibody 59R5. After 5 weeks, the taxol treatments were stopped and the antibody treatments were continued.
# (§2) Tumor volumes and p values for each experiment are shown relative to the control group. The PE13, C28 and Colo205 studies were carried out as described in Example 14. PN8 studies were carried out as described above. For the PN8 experiment, the control is gemcitabine alone and values for 59R1 and 59R5 are the combinations with gemcitabine. Antibodies were dosed once per week at 15 mg/kg for all experiments.
# [1] = system: Colo-205 colon tumor cells; assay: Colo-205 colon tumor xenograft growth; format: in vivo, mice; conditions: for Colo205 Tumor vol relative to the control group: 15 mg/kg once per week; for growth of Colo205 colon tumors: 15 mg/kg once per week after tumors established
# Method: In one experiment, the 1×10^7 viable Colo-205 colon tumor cells were injected into 6-8 week-old immunodeficient bg/nu XID female mice on a Swiss CD-1 background. Tumors were allowed to grow to a size of between 65 to 200 mm^3 after which mice were randomized (n=10 per experimental group), and antibodies administration begun. Animals were treated with 15 mg/kg of either control 1B7.11 antibodies or anti-Notch2/3 59R1 antibodies once weekly. Tumor size was measured twice weekly, and tumor volume was calculated as described (see Michieli et al., 2004, Cancer Cell, 6:61-73).
# as §1
# In another embodiment, NOD/SCID mice were injected with Colo205 colon tumor cells. The mice were treated with anti-Notch2/3 antibody 59R1, anti-Notch2/3 antibody 59R5 or control antibody. Antibodies were dosed at 15 mg/kg once per week after tumors had been established.
# as §2
# mNotch1 = target: T1, mNotch1 (Mus musculus, UniProt Q01705); assay: Biacore affinity, mouse Notch1; format: binding
# T1 construct: recombinant human and mouse Notch proteins (EGF10-15 for Notch1, 2, & 4; EGF9-14 for Notch3) were immobilized on a CM5 chip
# T1 sequence (Q01705 372-601 limits assumed): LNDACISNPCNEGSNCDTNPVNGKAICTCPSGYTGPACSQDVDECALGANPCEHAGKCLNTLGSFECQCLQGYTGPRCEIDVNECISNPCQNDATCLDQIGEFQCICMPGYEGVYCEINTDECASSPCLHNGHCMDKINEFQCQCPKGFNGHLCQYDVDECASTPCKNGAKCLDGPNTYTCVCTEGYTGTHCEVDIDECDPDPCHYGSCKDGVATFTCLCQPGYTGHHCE
# Method: (§3) The affinities for human and mouse Notch1, Notch2, Notch3, and Notch4 were determined using a Biacore 2000 instrument. Briefly, recombinant human and mouse Notch proteins (EGF10-15 for Notch1, 2, & 4; EGF9-14 for Notch3) were immobilized on a CM5 chip using standard amine based chemistry (NHS/EDC). For hNotch2, EGF1-12 was also tested for binding. Different antibody concentrations (1-100 nM) were injected over the protein surfaces and kinetic data were collected over time. The data was fit using the simultaneous global fit equation to yield dissociation constants (KD, nM) for each Notch (Table 3).
# (§4) The sequences of the heavy chain and light chain are provided in SEQ ID NO: 49 and SEQ ID NO:18, respectively. The heavy chain variable region is provided in SEQ ID NO:50 and the light chain variable region is provide SEQ ID NO:13. The heavy chain CDR3 sequence of 59R5 comprises SIFYTT, SEQ ID NO:51. The other CDR sequences of 59R5 are identical to 59R1. […] Both antibodies bind human and murine Notch2 and Notch3 receptors with sub-nanomolar affinity (see Table 6).
# hNotch1 = target: T2, hNotch1 (Homo sapiens, UniProt P46531); assay: Biacore affinity, human Notch1; format: binding; conditions: Table 6, Biacore; read-out: IgG Dissociation Constant (KD) h-Notch1
# T2 construct: recombinant human and mouse Notch proteins (EGF10-15 for Notch1, 2, & 4; EGF9-14 for Notch3) were immobilized on a CM5 chip
# Method: as §3, §4
# [2] = established tumors, 15 mg/kg once a week
# [3] = Table 6, Biacore, read-out: IgG Dissociation Constant (KD) m-Notch1
# T2 sequence (P46531 372-601 limits assumed): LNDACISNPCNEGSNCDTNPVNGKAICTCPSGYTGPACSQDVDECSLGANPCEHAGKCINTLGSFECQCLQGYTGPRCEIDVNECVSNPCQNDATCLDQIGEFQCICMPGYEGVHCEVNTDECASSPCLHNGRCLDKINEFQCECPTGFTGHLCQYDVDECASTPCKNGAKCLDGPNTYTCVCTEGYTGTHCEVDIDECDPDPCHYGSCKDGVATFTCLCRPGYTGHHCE
Substance,"PE13 tumor growth compared to control (PE13 breast tumor cells; 10 mg/kg twice week, started two days following cell injections)",PE13 Tumor vol relative to the control group (PE13 breast tumor cells; 15 mg/kg once per week),PE13 breast cancer growth relative to control antibody (PE13 breast tumor cells; [2]),"PE13 tumor growth compared to control (PE13 breast tumor cells; established tumors, 15 mg/kg twice weekly)",Colo205 Tumor vol relative to the control group [1],growth of Colo205 colon tumors [1],"Colo205 tumor growth, combination of 59R1 plus bevacizumab (AVASTIN) versus either alone [1, 2]","Colo205 tumor growth, monotherapy relative to control antibody (LZ1) [1, 2]","Colo-205 tumor growth compared to control ([1]; established tumors, 15 mg/kg once weekly, control 1B7.11)","Kd (mNotch1; Table 3, Biacore, EGF10-15, read-out: Dissociation Constant (KD) mNotch1) [nM]",Kd (mNotch1; [3]) [nM],Kd (hNotch1) [nM],"inhibition of PE13 tumor growth (PE13 breast tumor cells; 15 mg/kg once per week, preventative mode (dosing two days after cell injection))","PE13 tumor recurrence after high-dose taxol treatment (PE13 breast tumor cells; taxol 15 mg/kg twice per week for 5 weeks plus antibody, then antibody only)"
59R1: human IgG2 antibody binding Notch2 and Notch3; heavy and light chain SEQ ID NO:16 and 18; ATCC PTA-9547,significantly reduced,0.25,inhibit breast cancer growth,significantly reduced,0.68,inhibited,even greater inhibition of tumor growth,significantly inhibited growth,significantly reduced,> 10,> 10,> 10,,
59R5: human antibody that specifically binds human Notch 2 and human Notch 3; heavy and light chain SEQ ID NO:49 and 18; ATCC PTA-10170,,0.18,,,0.61,inhibited,,,,,> 10,> 10,greater than 80%,significantly delay tumor recurrence
